Each block holds one compound with its values, some of them ahead of it.
What was measured:
[1] = biological target: T1, Amyloid-beta precursor protein (Homo sapiens, UniProt P05067); test: Inhibition of amyloid beta 42 in human HEK293 cells; type: cell-based
HCT-116 [2] = test: Antiproliferative activity against human HCT-116 cells assessed as reduction in cell viability by MTT assay; type: functional, cell-based
[3] = Inhibition of HIF (unknown origin); parameters: species or system Homo sapiens
physchem [4] = settings: octanol/water
Description: Lipophilicity, log P of the compound

[5] = Binding affinity to human wild type HIF2alpha assessed as dissociation constant by calorimetry assay
Daudi = test: Antiproliferative activity against human Daudi assessed as inhibition of cell proliferation by MTT assay; type: functional, cell-based
c-Myc/c-Max = c-Myc/c-Max (Homo sapiens, UniProt P01106+P61244); test: Inhibition of Myc/Max (unknown origin); type: protein assay
Sequence of c-Myc/c-Max (P01106 whole entry): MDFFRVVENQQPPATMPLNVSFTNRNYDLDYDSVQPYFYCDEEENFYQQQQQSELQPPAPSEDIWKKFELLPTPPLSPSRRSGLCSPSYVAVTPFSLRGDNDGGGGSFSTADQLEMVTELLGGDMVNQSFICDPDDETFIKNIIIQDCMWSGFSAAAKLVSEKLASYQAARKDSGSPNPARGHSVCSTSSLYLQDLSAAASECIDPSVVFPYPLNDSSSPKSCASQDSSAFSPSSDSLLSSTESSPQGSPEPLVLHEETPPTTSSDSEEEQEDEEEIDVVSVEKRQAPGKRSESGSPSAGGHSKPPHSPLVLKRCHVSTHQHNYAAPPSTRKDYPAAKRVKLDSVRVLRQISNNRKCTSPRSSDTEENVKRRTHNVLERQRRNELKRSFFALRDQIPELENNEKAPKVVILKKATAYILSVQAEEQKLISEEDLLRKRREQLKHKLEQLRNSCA
Sequence of c-Myc/c-Max (P61244 whole entry): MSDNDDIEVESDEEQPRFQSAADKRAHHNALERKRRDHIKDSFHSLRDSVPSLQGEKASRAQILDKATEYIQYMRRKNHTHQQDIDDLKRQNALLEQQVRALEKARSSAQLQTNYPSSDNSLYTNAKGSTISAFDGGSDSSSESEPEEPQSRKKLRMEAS

HL-60 = test: Antiproliferative activity against (unknown origin) HL-60 assessed as inhibition of cell proliferation by MTT assay; type: functional, cell-based; settings: Homo sapiens
HeLa = test: cells; settings: Homo sapiens
Description: Antiproliferative activity against human HeLa cells assessed as reduction in cell viability

[6] = Inhibition of recombinant MAPK p38 (unknown origin) assessed as inhibition of MEF2A phosphorylation incubated for 5 mins by SDS-PAGE method; parameters: species or system Homo sapiens
[7] = Stability in rat assessed as intrinsic clearance; type: ADME; settings: CLH
physchem [8] = settings: octanol/water; remark: listed apart in the source
Description: Lipophilicity, log D of the compound

[9] = biological target: T1, Amyloid-beta precursor protein; test: Inhibition of amyloid beta 42 in human H4 cells; type: cell-based
[10] = Dissociation constant, pKa of compound; type: physicochemical
HCT-116 [11] = test: cells; settings: Homo sapiens
[12] = biological target: Prostaglandin G/H synthase 1 (Homo sapiens, UniProt P23219); test: Inhibition of COX1 (unknown origin)
Sequence of Prostaglandin G/H synthase 1 (P23219 whole entry): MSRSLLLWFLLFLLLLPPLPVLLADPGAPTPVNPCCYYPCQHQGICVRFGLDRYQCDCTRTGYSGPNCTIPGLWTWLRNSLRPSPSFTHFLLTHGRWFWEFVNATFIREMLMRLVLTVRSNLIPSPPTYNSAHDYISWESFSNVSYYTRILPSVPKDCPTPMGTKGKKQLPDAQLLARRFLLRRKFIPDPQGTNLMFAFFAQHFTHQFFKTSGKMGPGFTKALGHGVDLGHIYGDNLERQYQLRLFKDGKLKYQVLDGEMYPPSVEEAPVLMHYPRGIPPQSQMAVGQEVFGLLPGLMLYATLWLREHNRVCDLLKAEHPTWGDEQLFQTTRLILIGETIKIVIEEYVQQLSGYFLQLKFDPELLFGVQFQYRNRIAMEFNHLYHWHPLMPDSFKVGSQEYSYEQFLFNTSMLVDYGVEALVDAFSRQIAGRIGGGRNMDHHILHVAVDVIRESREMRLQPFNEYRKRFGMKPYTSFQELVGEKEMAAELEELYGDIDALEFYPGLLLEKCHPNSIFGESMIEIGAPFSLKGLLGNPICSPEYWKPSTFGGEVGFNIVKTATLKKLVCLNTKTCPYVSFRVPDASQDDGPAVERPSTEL

[13] = biological target: Aldo-keto reductase family 1 member C3 (Homo sapiens, UniProt P42330); test: Inhibition of AKR1C3 (unknown origin)
Sequence of Aldo-keto reductase family 1 member C3 (P42330 whole entry): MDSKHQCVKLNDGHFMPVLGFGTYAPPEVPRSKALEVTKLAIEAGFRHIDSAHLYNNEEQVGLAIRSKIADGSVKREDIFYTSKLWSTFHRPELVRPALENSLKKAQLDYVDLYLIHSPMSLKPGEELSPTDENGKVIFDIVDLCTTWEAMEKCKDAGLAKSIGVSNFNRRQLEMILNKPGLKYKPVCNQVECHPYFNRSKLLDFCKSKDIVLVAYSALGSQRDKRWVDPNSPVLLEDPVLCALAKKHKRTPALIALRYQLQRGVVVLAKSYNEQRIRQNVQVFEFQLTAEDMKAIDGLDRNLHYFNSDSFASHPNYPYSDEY

HT-29 = test: cells; settings: Homo sapiens
Description: Antiproliferative activity against human HT-29 cells assessed as reduction in cell viability

[14] = Lipophilicity, log D of compound at pH 7.4; type: physicochemical; settings: buffer
LNCaP = test: Antiproliferative activity against human LNCaP cells assessed as reduction in cell viability; type: functional, cell-based
[15] = biological target: Prostaglandin G/H synthase 2 (Homo sapiens, UniProt P35354); test: Inhibition of COX2 (unknown origin)
Sequence of Prostaglandin G/H synthase 2 (P35354 whole entry): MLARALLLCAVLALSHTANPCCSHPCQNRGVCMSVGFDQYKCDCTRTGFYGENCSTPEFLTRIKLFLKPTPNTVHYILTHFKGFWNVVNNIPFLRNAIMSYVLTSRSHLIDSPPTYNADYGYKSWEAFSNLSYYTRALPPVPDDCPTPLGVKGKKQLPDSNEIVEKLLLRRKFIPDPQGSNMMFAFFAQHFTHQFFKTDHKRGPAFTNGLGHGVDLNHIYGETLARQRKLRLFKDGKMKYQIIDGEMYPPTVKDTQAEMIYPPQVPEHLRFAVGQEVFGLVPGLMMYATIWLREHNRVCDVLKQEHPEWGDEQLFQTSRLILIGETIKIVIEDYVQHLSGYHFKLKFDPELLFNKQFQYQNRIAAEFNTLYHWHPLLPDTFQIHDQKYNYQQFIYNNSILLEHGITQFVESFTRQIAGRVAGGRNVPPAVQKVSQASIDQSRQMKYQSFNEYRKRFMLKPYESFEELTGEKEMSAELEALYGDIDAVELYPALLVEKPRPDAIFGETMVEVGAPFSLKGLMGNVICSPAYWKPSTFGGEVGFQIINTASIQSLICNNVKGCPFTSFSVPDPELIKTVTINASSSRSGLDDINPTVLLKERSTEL

[16] = Neuroprotective activity against neurons (unknown origin) assessed as rescue by measuring cytokine level at 1.0 uM relative to control; type: functional, Homo sapiens, Neuron
[17] = Drug concentration in mouse plasma at 10 mg/kg, iv administered once daily measured after 2 hrs; type: ADME, organism-based
[18] = Neuroprotective activity against neurons (unknown origin) assessed as rescue by measuring cytokine level at 10 uM relative to control; type: functional, Homo sapiens, Neuron
[19] = biological target: Tumor necrosis factor (Homo sapiens) (UniProt P01375); test: Inhibition of TNF-alpha secretion in human THP-1 cells; parameters: concentration or dose not given beside the values; settings: concentration not given here
Sequence of Tumor necrosis factor (Homo sapiens) (P01375 whole entry, looked up): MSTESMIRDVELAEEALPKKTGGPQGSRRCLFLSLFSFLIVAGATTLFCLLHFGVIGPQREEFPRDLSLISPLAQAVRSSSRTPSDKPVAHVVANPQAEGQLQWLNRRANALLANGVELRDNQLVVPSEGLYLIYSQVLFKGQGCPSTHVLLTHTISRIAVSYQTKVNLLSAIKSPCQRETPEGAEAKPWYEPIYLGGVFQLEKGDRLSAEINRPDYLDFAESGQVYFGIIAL

THP-1 [20] = test: Antinflammatory activity in human THP-1 cells assessed as reduction of TNF-alpha at 1.0 uM relative to control; type: functional
[21] = biological target: T2, MAP kinase p38 (Homo sapiens) (UniProt O15264+Q15759+Q16539+P53778); test: Inhibition of p38 (unknown origin) at 10 uM relative to control; type: protein assay
THP-1 [22] = test: Antinflammatory activity in human THP-1 cells assessed as reduction of TNF-alpha at 10 uM relative to control; type: functional; parameters: scale not given: the % may be the effect or the level left
[23] = biological target: Mitogen-activated protein kinase 14 (Homo sapiens) (UniProt Q16539); test: Inhibition of recombinant p38alpha MAPK (unknown origin) at 10 uM preincubated for 10 mins followed by substrate addition and measured after 40 mins in the presence of ATP by ADP-Glo assay; settings: time 60.0 min
Sequence of Mitogen-activated protein kinase 14 (Homo sapiens) (Q16539 whole entry): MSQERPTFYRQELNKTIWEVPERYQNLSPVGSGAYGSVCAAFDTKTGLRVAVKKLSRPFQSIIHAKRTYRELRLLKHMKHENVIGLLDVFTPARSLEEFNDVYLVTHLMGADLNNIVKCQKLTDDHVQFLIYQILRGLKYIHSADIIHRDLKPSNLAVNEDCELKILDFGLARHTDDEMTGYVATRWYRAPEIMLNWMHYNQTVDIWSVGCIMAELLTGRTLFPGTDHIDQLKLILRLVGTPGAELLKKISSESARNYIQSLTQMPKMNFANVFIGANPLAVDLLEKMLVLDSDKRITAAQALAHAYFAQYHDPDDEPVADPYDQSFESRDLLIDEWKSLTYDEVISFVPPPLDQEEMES

[24] = Drug concentration in mouse brain at 10 mg/kg, iv administered once daily measured after 2 hrs; type: ADME, organism-based; settings: read-out: Ct
[25] = biological target: T3, c-Jun N-terminal kinase, JNK (Homo sapiens) (UniProt P45983+P53779+P45984); test: Inhibition of JNK (unknown origin) at 1.0 uM relative to control; type: protein assay
[26] = biological target: T3, c-Jun N-terminal kinase, JNK (Homo sapiens); test: Inhibition of JNK (unknown origin) at 10 uM relative to control; type: protein assay
[27] = biological target: T2, MAP kinase p38 (Homo sapiens); test: Inhibition of p38 (unknown origin) at 1.0 uM relative to control; type: protein assay
Rattus norvegicus [28] = species: Rattus norvegicus; test: Antihypertensive activity in spontaneously hypertensive rat model assessed as reduction in systemic arterial pressure; type: functional
Rattus norvegicus [29] = species: Rattus norvegicus; test: Antihypertensive activity in spontaneously hypertensive rat model assessed as reduction in pulmonary arterial pressure; type: functional
HASMC = test: Antiproliferative activity against human HASMC cells assessed as inhibition of cell proliferation measured after 24 hrs by MTT assay; type: functional, cell-based

T1 sequence (P05067 whole entry): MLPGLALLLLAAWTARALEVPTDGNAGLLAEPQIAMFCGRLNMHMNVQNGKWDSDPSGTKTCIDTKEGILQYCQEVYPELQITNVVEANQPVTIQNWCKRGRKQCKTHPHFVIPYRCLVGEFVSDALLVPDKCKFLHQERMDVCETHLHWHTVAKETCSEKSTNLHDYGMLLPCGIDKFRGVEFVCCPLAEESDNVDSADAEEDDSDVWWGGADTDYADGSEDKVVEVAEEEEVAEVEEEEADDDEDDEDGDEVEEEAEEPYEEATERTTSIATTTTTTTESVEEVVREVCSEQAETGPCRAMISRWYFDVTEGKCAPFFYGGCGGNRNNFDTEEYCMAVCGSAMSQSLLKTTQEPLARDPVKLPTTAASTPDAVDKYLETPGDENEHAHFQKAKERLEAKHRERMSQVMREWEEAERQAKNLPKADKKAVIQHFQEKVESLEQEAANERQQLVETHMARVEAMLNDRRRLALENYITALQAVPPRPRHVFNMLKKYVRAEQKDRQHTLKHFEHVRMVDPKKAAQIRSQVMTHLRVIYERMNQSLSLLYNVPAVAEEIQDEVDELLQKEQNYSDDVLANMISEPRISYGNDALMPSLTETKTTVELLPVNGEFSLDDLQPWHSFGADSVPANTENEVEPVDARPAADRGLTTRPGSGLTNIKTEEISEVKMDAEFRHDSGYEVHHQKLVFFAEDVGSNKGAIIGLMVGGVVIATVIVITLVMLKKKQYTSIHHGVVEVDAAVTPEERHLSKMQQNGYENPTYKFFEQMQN

Compound: O=C(Nc1nonc1-c1ccc(Cl)cc1)c1ccc(C(F)(F)F)cc1
EC50 (HCT-116 [2]): 1.3 µM

Compound: O=C(Nc1ccc(C(F)(F)F)cc1)Nc1nonc1-c1ccc(Cl)cc1
EC50 (HCT-116 [2]): 2.5 µM

Compound: O=[N+]([O-])c1ccccc1 [NITROBENZENE]
logD (physchem [8]): 1.6

Compound: O=C(O)c1ccc(-c2ccccc2Nc2ccc([N+](=O)[O-])c3nonc23)cc1
EC50 (Daudi): 56 µM
IC50 (c-Myc/c-Max): 33 µM
EC50 (HL-60): 148 µM

Compound: O=C(O)[C@H](CC1CCC1)c1cc(Cl)c(OCC(F)(F)F)c(-c2ccc(C(F)(F)F)cc2)c1
EC50 [9]: 0.07 µM

Compound: O=c1[nH]ccc2cc(OC3CCNCC3)ccc12 [SAR-407899 FREE BASE]
Activity (Rattus norvegicus [28]): -19 mmHg
Activity (Rattus norvegicus [29]): -6 mmHg
IC50 (HASMC): 0.122 µM

Further lines, with some results ahead:

EC50 [1]: 0.27 µM
Compound: CC(C)CC(C(=O)O)c1cc(Cl)c(OCC2CC2)c(-c2ccc3nonc3c2)c1 (configuration not stated)

IC50 [3]: 43 µM
logP (physchem [4]): 4.4
Kd [5]: 0.023 µM
Compound: Fc1cc(Br)cc([C@@H]2C[C@H](c3cccc(Br)c3)n3nnnc3N2)c1

EC50 [1]: 0.07 µM
Compound: CC(C)CC(C(=O)O)c1cc(Cl)c(OCC2CC2)c(-c2ccc(C(F)(F)F)cc2)c1 (configuration not stated)

EC50 (Daudi): 3.1 µM
IC50 (c-Myc/c-Max): 40 µM
EC50 (HL-60): 9.6 µM
Compound: O=C(Oc1ccccc1)c1ccccc1Nc1ccc([N+](=O)[O-])c2nonc12

EC50 (HeLa): 1 µM
Compound: Nc1nonc1/C(=N/O)NCc1ccccc1

IC50 [6]: 10 µM
Compound: Cc1ccc(Cl)cc1Nc1cc(Cl)c2nonc2c1[N+](=O)[O-]

EC50 (HeLa): 0.019 µM
CLint scaled [7]: > 36.7 mL/min/kg
Compound: Nc1nonc1C(=NO)Nc1ccc(F)c(Cl)c1

pKa [10]: 4.09
EC50 (HCT-116 [11]): 78.9 µM
IC50 [12]: > 100 µM
IC50 [13]: 0.3 µM
EC50 (HT-29): 135 µM
logD [14]: 1.8
EC50 (LNCaP): 141 µM
IC50 [15]: > 100 µM
Compound: COc1ccc2c(c1)c(Cc1nonc1O)c(C)n2C(=O)c1ccccc1

concentration at 2 h [17]: 430 nM
inhibition [21]: 99%
inhibition [23]: 99%
concentration at 2 h [24]: 800 nM
inhibition [25]: 49%
inhibition [26]: 98%
inhibition [27]: 37%
Compound: CCCOc1ccc(Nc2nc3nonc3nc2N2CCC(Oc3ccc(Cl)cc3)CC2)cc1
Activity [16]: 33%
Activity [18]: 51%
inhibition [19]: 74%
inhibition at 1 µM (THP-1 [20]): 51%
Activity (THP-1 [22]): 74%

Reference: ChEMBL document CHEMBL5236544, “Furazans in Medicinal Chemistry” (J Med Chem, 2021)
